Test results reported in US20220324835A1 (Nurix Therapeutics, Inc., priority 2018, published 2022).

Legend:
T-cell [1] = assay: IL-2 secretion from T-cells stimulated with anti-CD3 antibody alone (Biological Example 2); assay type: cell-based, human; settings: T-cell, read-out: IL-2 secretion Anti-CD3 stimulation; for fold induction at 1 µM: 1 μM Cbl-b inhibitor; for fold induction at 8 µM: 8 μM Cbl-b inhibitor
T-cell [2] = assay: IL-2 secretion from T-cells co-stimulated with anti-CD3 and anti-CD28 antibody (Biological Example 2); assay type: cell-based, human; settings: Homo sapiens, T-cell, read-out: IL-2 secretion Anti-CD3/Anti-CD28 stimulation; for fold induction at 0.3 µM: 0.3 μM Cbl-b inhibitor; for fold induction at 1 µM: 1 μM Cbl-b inhibitor; for fold induction at 4 µM: 4 μM Cbl-b inhibitor
Outline: (§1)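 No assay protocol given; T-cells stimulated with anti-CD3 alone or anti-CD3 plus anti-CD28, with or without Cbl-b inhibitor. Activation read as IL-2 secretion or CD25 surface staining, expressed as fold over baseline from uninhibited cells […].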

T-cell [3] = assay: CD25 cell surface staining on T-cells co-stimulated with anti-CD3 and anti-CD28 antibody (Biological Example 2); assay type: cell-based, human; settings: Homo sapiens, T-cell, read-out: CD25 staining Anti-CD3/Anti-CD28 stimulation; for fold induction at 0.3 µM: 0.3 μM Cbl-b inhibitor; for fold induction at 1 µM: 1 μM Cbl-b inhibitor; for fold induction at 4 µM: 4 μM Cbl-b inhibitor
Outline: as §1

Cbl-b [4] = target: T1, Cbl-b (Homo sapiens, UniProt Q13191); assay: Cbl-b activity assay (Cbl-b inhibition assay), TR-FRET of Cbl-b interaction with UbcH5B-Ub; assay type: biochemical; settings: assay buffer with 100 mM NaCl, 60 nM Src kinase; read-out: Cbl-b activity IC50
T1 sequence (Q13191 36-427): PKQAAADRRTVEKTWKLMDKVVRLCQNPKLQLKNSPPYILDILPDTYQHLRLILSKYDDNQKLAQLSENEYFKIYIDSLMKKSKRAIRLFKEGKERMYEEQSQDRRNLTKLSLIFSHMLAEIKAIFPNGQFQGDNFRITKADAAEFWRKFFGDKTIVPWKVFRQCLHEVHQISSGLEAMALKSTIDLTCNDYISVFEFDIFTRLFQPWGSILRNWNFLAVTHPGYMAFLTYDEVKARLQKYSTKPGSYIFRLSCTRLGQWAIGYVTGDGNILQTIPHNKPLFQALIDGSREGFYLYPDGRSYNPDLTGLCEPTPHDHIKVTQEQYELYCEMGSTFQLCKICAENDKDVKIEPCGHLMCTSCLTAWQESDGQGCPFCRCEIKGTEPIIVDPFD
Outline: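 TR-FRET readout of Cbl-b binding to Bodipy-fluorescein N-terminally labeled Ub conjugated to UbcH5B C85K, measured with compound present. After compound incubation, 60 nM Src kinase with 1 mM ATP and 5 mM MgCl2 (final) was added for 1.5 h, then a further 1 h incubation; asterisked values used 50 mM NaCl buffer and 30 nM Src.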

Cbl-b [5] = target: T1, Cbl-b; assay: Cbl-b inhibition assay (Cbl-b activity assay, FRET, Biological Example 1; 100 mM NaCl, 60 nM Src kinase); assay type: biochemical; settings: upper bound stated in text lists; read-out: IC50 values in the Cbl-b inhibition assay of Biological Example 1
Outline: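 Binding-based Cbl-b activity assay. Src-phosphorylated, N-terminally biotin-Avi-tagged Cbl-b recruits labelled UbcH5B-Ub, and proximity to streptavidin-terbium yields FRET.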

T-cell [6] = assay: CD25 cell surface staining on T-cells stimulated with anti-CD3 antibody alone (Biological Example 2); assay type: cell-based, human; settings: T-cell, read-out: CD25 staining Anti-CD3 stimulation; for fold induction at 1 µM: 1 μM Cbl-b inhibitor; for fold induction at 8 µM: 8 μM Cbl-b inhibitor
[7] = Homo sapiens, fold change over baseline (anti-CD3/anti-CD28 stimulated T-cells without inhibitor)
[8] = fold change over baseline (anti-CD3/anti-CD28 stimulated T-cells without inhibitor)
[9] = fold change over baseline, primary human total T-cells

Row | SMILES | fold induction at 1 µM (T-cell [1]; [7]) | fold induction at 0.3 µM (T-cell [2]; [8]) | fold induction at 1 µM (T-cell [2]; [8]) | fold induction at 0.3 µM (T-cell [3]; [8]) | fold induction at 1 µM (T-cell [3]; [8]) | IC50 (Cbl-b [4]) [nM] | IC50 (Cbl-b [5]) [nM] | fold induction at 1 µM (T-cell [6]; [7]) | fold induction at 1 µM (T-cell [1]; [9]) | fold induction at 8 µM (T-cell [1]; [9]) | fold induction at 0.3 µM (T-cell [2]; [9]) | fold induction at 1 µM (T-cell [2]; [9]) | fold induction at 4 µM (T-cell [2]; [9]) | fold induction at 0.3 µM (T-cell [3]; [9]) | fold induction at 1 µM (T-cell [3]; [9]) | fold induction at 4 µM (T-cell [3]; [9]) | fold induction at 1 µM (T-cell [6]; [9]) | fold induction at 8 µM (T-cell [6]; [9])
1 | Cc1cc(C(=O)Nc2cc(C3CC3)cc(C3(Cc4nncn4C)COC3)c2)nc(C2CC2)n1 [Example 698, 2-cyclopropyl-N-(3-cyclopropyl-5-(3-((4-methyl-4H-1,2,4-triazol-3-yl)methyl)oxetan-3-yl)phenyl)-6-methylpyrimidine-4-carboxamide] | > 0.201 | 2.51 to 5 | > 7.5 | 1.01 to 1.3 | 1.31 to 1.5 | < 100 | ≤ 100 | > 1 | – | – | – | – | – | – | – | – | – | –
2 | Cn1cnnc1CC1(c2cccc(N3Cc4c(cc(CN5Cc6cccc(F)c6C5)cc4C(F)(F)F)C3=O)c2)COC1 [Example 653, 6-((4-fluoroisoindolin-2-yl)methyl)-2-(3-(3-((4-methyl-4H-1,2,4-triazol-3-yl)methyl)oxetan-3-yl)phenyl)-4-(trifluoromethyl)isoindolin-1-one] | > 0.201 | 2.51 to 5 | > 7.5 | 1.31 to 1.5 | 1.31 to 1.5 | < 100 | ≤ 100 | > 1 | – | – | – | – | – | – | – | – | – | –
3 | CC(c1cc2c(c(C3CC3)n1)CN(c1cccc(C3(Cc4nncn4C)COC3)c1)C2=O)N1CCCCC1 (stereo not drawn) [Example 587, 4-Cyclopropyl-2-(3-(3-((4-methyl-4H-1,2,4-triazol-3-yl)methyl)oxetan-3-yl)phenyl)-6-(l-(piperidin-1-yl)ethyl)-2,3-dihydro-1H-pyrrolo[3,4-c]pyridin-1-one] | > 0.201 | 5 to 7.5 | > 7.5 | > 1.76 | > 1.76 | < 100 | ≤ 100 | 0.601 to 0.8 | – | – | – | – | – | – | – | – | – | –
4 | Cn1cnnc1CC1(c2cccc(N3Cc4c(cc(C(O)c5ccccc5)cc4C(F)(F)F)C3=O)c2)COC1 (centres unmarked) [Example 697, 6-(hydroxy(phenyl)methyl)-2-(3-(3-((4-methyl-4H-1,2,4-triazol-3-yl)methyl)oxetan-3-yl)phenyl)-4-(trifluoromethyl)isoindolin-1-one] | > 0.201 | 5 to 7.5 | > 7.5 | 1.31 to 1.5 | 1.31 to 1.5 | < 100 | ≤ 100 | > 1 | – | – | – | – | – | – | – | – | – | –
5 | Cn1cnnc1[C@@H](F)C1(c2cccc(N3Cc4c(cc(CN5[C@@H]6CC[C@H]5C[C@@H](F)C6)cc4C(F)(F)F)C3=O)c2)COC1 [Example 672a, 2-(3-(3-((S)-fluoro(4-methyl-4H-1,2,4-triazol-3-yl)methyl)oxetan-3-yl)-phenyl)-6-(((1R,3S,5S)-3-fluoro-8-azabicyclo[3.2.1]octan-8-yl)methyl)-4-(trifluoromethyl)isoindolin-1-one] | > 0.201 | 2.51 to 5 | > 7.5 | > 1.76 | > 1.76 | < 100 | ≤ 100 | 0.801 to 1 | – | – | – | – | – | – | – | – | – | –
6 | C[C@H](Cc1nncn1C)c1cc(N[C@H]2CC[C@H]2O)nc(N2Cc3c(cccc3C(F)(F)F)C2=O)c1 [Example 689b, 2-(6-(((1S,2R)-2-hydroxycyclobutyl)amino)-4-((R)-1-(4-methyl-4H-1,2,4-triazol-3-yl)propan-2-yl)pyridin-2-yl)-4-(trifluoromethyl)isoindolin-1-one] | < 0.05 | 1.01 to 2.5 | 1.01 to 2.5 | 1.01 to 1.3 | 1.01 to 1.3 | 301 to 1000 | ≤ 1000 | < 0.6 | – | – | – | – | – | – | – | – | – | –
7 | CN1C[C@@H]2C[C@H]1CN2c1cc2c(c(C(F)(F)F)c1)CN(c1cccc([C@@](C)(F)C(F)(F)c3nncn3C)c1)C2=O [Example 563, 6-((1S,4S)-5-Methyl-2,5-diazabicyclo[2.2.1]heptan-2-yl)-2-(3-((R)-1,1,2-trifluoro-1-(4-methyl-4H-1,2,4-triazol-3-yl)propan-2-yl)phenyl)-4-(trifluoromethyl)-isoindolin-1-one] | 0.051 to 0.1 | 1.01 to 2.5 | 2.51 to 5 | 1.01 to 1.3 | 1.31 to 1.5 | < 100 | ≤ 100 | 0.801 to 1 | – | – | – | – | – | – | – | – | – | –
8 | Cc1cc(C(=O)Nc2cccc([C@H](C)Cc3nncn3C)c2)nc2ccnn12 [Compound 329, (R)-7-Methyl-N-(3-(1-(4-methyl-4H-1,2,4-triazol-3-yl)propan-2-yl)phenyl)pyrazolo[1,5-a]pyrimidine-5-carboxamide] | – | – | – | – | – | 100 to 300 | ≤ 300 | – | 0.101 to 0.15 | > 0.201 | 1.01 to 2.5 | 1.01 to 2.5 | 5 to 7.5 | 1.01 to 1.3 | 1.01 to 1.3 | 1.31 to 1.5 | 0.601 to 0.8 | > 1
9 | Cn1cnnc1CC(c1cccc(N2Cc3c(cccc3C(F)(F)F)C2=O)c1)C(F)(F)F (centres unmarked) [Compound 289, 2-(3-(1,1,1-Trifluoro-3-(4-methyl-4H-1,2,4-triazol-3-yl)propan-2-yl)phenyl)-4-(trifluoromethyl)isoindolin-1-one] | – | – | – | – | – | 301 to 1000 | ≤ 500 | – | 0.101 to 0.15 | 0.151 to 0.2 | < 1 | < 1 | 1.01 to 2.5 | 1.01 to 1.3 | 1.01 to 1.3 | 1.01 to 1.3 | 0.801 to 1 | 0.801 to 1
10 | CN1C[C@H]2CC[C@@H](C1)N2c1cc(C(=O)Nc2cccc(C3(Cc4nncn4C)COC3)c2)nc(C2CC2)n1 [Example 573, 2-Cyclopropyl-N-(3-(3-((4-methyl-4H-1,2,4-triazol-3-yl)methyl)oxetan-3-yl)phenyl)-6-((1R,5S)-3-methyl-3,8-diazabicyclo[3.2.1]octan-8-yl)pyrimidine-4-carboxamide] | > 0.201 | 5 to 7.5 | > 7.5 | 1.31 to 1.5 | 1.51 to 1.75 | < 100 | ≤ 100 | > 1 | – | – | – | – | – | – | – | – | – | –
11 | Cn1cnnc1CC1(c2cccc(N3Cc4c(cc(CN5CCCC5)nc4C4CC4)C3=O)c2)COC1 [Example 579, 4-Cyclopropyl-2-(3-(3-((4-methyl-4H-1,2,4-triazol-3-yl)methyl)oxetan-3-yl)phenyl)-6-(pyrrolidin-1-ylmethyl)-2,3-dihydro-1H-pyrrolo[3,4-c]pyridin-1-one] | < 0.05 | 1.01 to 2.5 | 2.51 to 5 | 1.01 to 1.3 | 1.01 to 1.3 | < 100 | ≤ 100 | < 0.6 | – | – | – | – | – | – | – | – | – | –
12 | Cn1cnnc1CC1(c2cccc(N3Cc4c(cc(N5CCOCC5)cc4C(F)(F)F)C3=O)c2)COC1 [Example 567, 2-(3-(3-((4-Methyl-4H-1,2,4-triazol-3-yl)methyl)oxetan-3-yl)phenyl)-6-morpholino-4-(trifluoromethyl)isoindolin-1-one] | 0.051 to 0.1 | 1.01 to 2.5 | 2.51 to 5 | 1.01 to 1.3 | 1.01 to 1.3 | < 100 | ≤ 100 | 0.801 to 1 | – | – | – | – | – | – | – | – | – | –
